Test: Solubility of tin ions in polyol solutions with SnF2 at various pH (visual appearance)
Assay type: physicochemical
Conditions: for Appearance of polyol solution with SnF2, pH 2-4 / Appearance of polyol solution with SnF2, pH 4-6 / Appearance of polyol solution with SnF2, pH 6-8 / Appearance of polyol solution with SnF2, pH 8-10: aqueous polyol solution + 0.45 g SnF2; for Appearance of polyol solution with SnF2, pH 2-4 / Appearance of polyol solution with SnF2, pH 4-6 / Appearance of polyol solution with SnF2, pH 6-8: cloudy = insoluble tin complexes formed; for Appearance of polyol solution with SnF2, pH 8-10: cloudy = Sn(OH)2 formed; for Appearance of polyol/stannous fluoride solution at a pH of greater than 7: aqueous polyol/stannous fluoride solution, pH greater than 7, cloudy = Sn(OH)2 formation not prevented
Experimental: A 30% (w/w) solution was prepared for each polyol was prepared using the appropriate amount of the pure polyol and deionized water. Next, 46 g of the 30% (w/w) polyol solution was placed in a 250 mL glass beaker with a stirring bar on top of a magnetic stirring apparatus. 21 g of deionized water was added to the glass beaker and the magnetic stirring apparatus was started to commence stirring of the solution. A pH electrode was connected to a pH meter (VWR Scientific, Model 9100, Radnor, Pa.) and the pH electrode (ThermoFisher Scientific, Orion 8165BNWP, Waltham, Mass.) was placed in the stirring polyol solution.
0.45 grams of a tin ion source, such as stannous fluoride, was added to the stirring polyol solution. The pH was recorded once the tin ion source was completely added. The pH of the solution was increased by dropwise addition of a 33% (w/w) solution of NaOH.
0.45 grams of a tin ion source, such as stannous fluoride, was added to the stirring polyol solution. The pH was recorded once the tin ion source was completely added. The pH of the solution was decreased by dropwise addition of a 33% (w/w) solution of HCl.
A solution that appeared cloudy indicated the formation of insoluble tin complexes. At a pH of greater than 7, a cloudy solution indicated the formation of Sn(OH)2. FIG. 1-4 illustrates TABLE 2 by showing the appearance of each solution described in TABLE 2.

Appearance of polyol solution with SnF2, pH 2-4	Appearance of polyol solution with SnF2, pH 4-6	Appearance of polyol solution with SnF2, pH 6-8	Appearance of polyol solution with SnF2, pH 8-10	Appearance of polyol/stannous fluoride solution at a pH of greater than 7	Appearance of polyol solution with SnF2, pH 2-4 (listed as sorbitol)	Appearance of polyol solution with SnF2, pH 4-6 (listed as sorbitol)	Appearance of polyol solution with SnF2, pH 6-8 (listed as sorbitol)	Appearance of polyol solution with SnF2, pH 8-10 (listed as sorbitol)	Appearance of polyol solution with SnF2, pH 2-4 (listed as xylitol)	Appearance of polyol solution with SnF2, pH 4-6 (listed as xylitol)	Appearance of polyol solution with SnF2, pH 6-8 (listed as xylitol)	Appearance of polyol solution with SnF2, pH 8-10 (listed as xylitol)	SMILES
Clear	Cloudy	Cloudy	Cloudy	cloudy	–	–	–	–	–	–	–	–	OC[C@@H](O)[C@@H](O)CO [Erythritol (4 Carbon), Erythritol]
Clear	Clear	Cloudy	Cloudy	cloudy	–	–	–	–	–	–	–	–	OCC(O)CO [Glycerin (3 Carbon), Glycerin]
Clear	Cloudy	Cloudy	Clear	–	clear	cloudy	cloudy	clear	–	–	–	–	OC[C@@H](O)[C@@H](O)[C@H](O)[C@@H](O)CO [Sorbitol (6 Carbon), Sorbitol]
Clear	Cloudy	Cloudy	Clear	–	–	–	–	–	clear	cloudy	cloudy	clear	OC[C@@H](O)[C@H](O)[C@@H](O)CO [Xylitol (5 Carbon), Xylitol]

From patent US11839671B2, “Oral care compositions comprising tin ions” (The Procter & Gamble Company, priority 2019, dated 2023)
